Experiment [1] deals with primary culture of bovine mammary epithelial cells. In words: Milk lactose secretion to the medium (HPLC, refractive index detector). Type of experiment: cell-based. An excerpt:
For all the experiments, primary culture of bovine mammary epithelial cells were used. The cells were isolated from 3 lactating Holstein cows according to an established protocol (Cohen et al., 2015 supra). Study protocols were in compliance with the regulations of the Israeli Ministry of Health, under the supervision of the Department for Control of Animal Products, State of Israel Ministry of Agriculture Rural Development Veterinary Services and Animal Health. Certificate Nu: #80. After isolation, 60,000 cells were plated in a 35-mm plastic dish on glass cover slips for all florescence staining experiments. For production analysis, 150,000 cells were plated in a 60-mm plastic dish for lipids, protein, and lactose extraction. […] After 24 h of incubation, medium was collected for triglyceride and phospholipid quantification, and cells were harvested for cell counting, lipid, lactose or protein extraction. […] After treatment, 0.5 ml medium was collected to be analyzed using HPLC equipped with a refractive index detector at 68° C. […] Identification and quantification were determined by establishing a calibration curve of external standard of a known lactose concentration dissolved in water. […]

The test system is the same in experiment [2]. In words: Intracellular triglyceride content in cell lysates (lipid extraction, HPLC-ELSD). Type of experiment: cell-based. The following applies: 24 h of treatment (FIG. 7). An excerpt: For all the experiments, primary culture of bovine mammary epithelial cells were used. The cells were isolated from 3 lactating Holstein cows according to an established protocol (Cohen et al., 2015 supra). Study protocols were in compliance with the regulations of the Israeli Ministry of Health, under the supervision of the Department for Control of Animal Products, State of Israel Ministry of Agriculture Rural Development Veterinary Services and Animal Health. Certificate Nu: #80. After isolation, 60,000 cells were plated in a 35-mm plastic dish on glass cover slips for all florescence staining experiments. For production analysis, 150,000 cells were plated in a 60-mm plastic dish for lipids, protein, and lactose extraction. Oxygen consumption assay was performed by using Seahorse system (Agilent, USA); cells were plated in 24-well plate (20,000 cells/well) and incubated with DMEM/F12, with 0.15% (v/v) bovine serum albumin and insulin (1 μg/ml), hydrocortisone (0.5 μg/ml) and prolactin (1 μg/ml) for 48 h to induce lactogenic response. Then cells were treated with three different P. lentiscus extracts: ethyl acetate, hexane and chloroform, according to the protocol that was used before (Azaizeh et al., 2013). The extracts were diluted with DMEM/F12 medium supplemented with Dimethyl Sulfoxide (DMSO) in a final concentration of 0.1% for better dissolution of the extractions. […] The treatment was given in the presence of insulin (1 μg/ml), hydrocortisone (0.5 μg/ml) and prolactin (1 μg/ml). […] Otherwise, cells were fixed for florescence staining or plates taken to seahorse for oxygen consumption rate measurement.
After treatment, total lipids were extracted from harvested cells and from collected medium. The medium or the cells were diluted by 20 times Folch reagent (Chloroform-Methanol 2:1). After overnight incubation with cold extraction at 4° C., the upper phase was removed, and the lower phase was filtered through glass wool. Samples were then evaporated under a nitrogen stream at 65° C., diluted in 100 μl chloroform:methanol (97:3, v/v) and stored at −20° C. until injection for HPLC analysis. […] Quantification was performed against external standard curves and expressed as μg/per 10^6 live cells or as weight % out of the sum of phospholipids (μg) in the sample. Live cell number was determined with a hemocytometer after 5 min of trypan blue staining. […]
Cells were incubated with 360 uM oleic acid (O) with or without 1.2 mM beta hydroxybutyrate (BHBA, H). The concentration of triglyceride was measured in cell lysates.

The structures appear in SMILES notation.

With `O=C(O)c1cc(O)c(O)c(O)c1` [gallic acid], the lactose secretion entry in experiment [1] is reported as “increases”. In experiment [2], the intracellular triglyceride content entry was “did not affect”.
`O=c1c(O)c(-c2cc(O)c(O)c(O)c2)oc2cc(O)cc(O)c12` [myricetin, Myricetin]: in experiment [1], the lactose secretion result is “can increase”. Besides, the intracellular triglyceride content result in experiment [2] was “did not affect”.

Source of the values: patent US20230416679A1, “METHODS AND COMPOSITIONS FOR IN-VITRO AUGMENTATION OF MILK PRODUCTION FROM MAMMARY EPITHELIAL CELLS” (Wilk Technologies International Ltd., priority 2021, published 2023).
